Experiments:
[1] = system: ICR mice; experiment: Righting reflex experiment on mice; conditions: for ED50: Mus musculus, iv; for Anesthesia induction time / Anesthesia maintenance time / HD7: mice; for Anesthesia induction time / Anesthesia maintenance time: intravenous injection; for Anesthesia induction time: end of administration until loss of righting reflex; for Anesthesia maintenance time: loss until recovery of righting reflex; for HD7: dose required to cause a 7-min anesthesia; for TI: therapeutic index, LD50/ED50, mice
Protocol: (§1) LD5 (5% lethal dose): dose required to cause 5% of mice to die in a test.
(§2) If a normal animal was able to immediately turn its body to normal upright position after being pushed over or made lying on its back, such a reflex was determined as the righting reflex. Otherwise, loss of the righting reflex and the time of loss were recorded, and a reflex recovery time was recorded when the animal restored the righting reflex. The period from finishing of drug administration until loss of the righting reflex was recorded as the anesthesia induction time, and the period from loss of the righting reflex until recovery of the righting reflex was recorded as the anesthesia maintenance time.
(§3) TI (therapeutic index, i.e. LD50/ED50), SI (safety index, i.e. LD5/ED95).
(§4) MTD (maximum tolerated dose): the maximum dose able to cause 100% to loss the righting index without death.
(§5) Indicators such as median effective dose (ED50), median lethal dose (LD50), therapeutic index (TI, i.e. LD50/ED50), safety index (SI, i.e. LD5/ED95), anesthesia induction time, anesthesia maintenance time, and maximum tolerated dose (MTD) were used to evaluate the effect and safety of anesthesia. […] After adapting to the laboratory environment, laboratory animals were fasted for 12 hours. On the next day, administration was carried out at 10 mg/kg body weight. Upon intravenous injection, the time of loss of the righting reflex was recorded. The period from finishing of drug administration until loss of the righting reflex was recorded as the anesthesia induction time, and the period from loss of the righting reflex until recovery of the righting reflex was recorded as the anesthesia maintenance time. The anesthesia induction time and the anesthesia maintenance time were used to indicate how strong an anesthetic effect was. Meanwhile, the dose required to cause a 7-min anesthesia (HD7) was measured and used to evaluate relative efficacy.

[2] = Righting reflex experiment on mice; conditions: both, ICR, mouse, in vivo
Protocol: as §1, §2, §3, §4, §5

[3] = system: GABAA receptors; conditions: CHO/GABAA; for EC50: enhancement of muscimol-induced GABAA receptor current, whole-cell patch-clamp
Protocol: Various concentrations of test compounds and muscimol were added together to CHO/GABAA, and the current mediated by GABAA receptors was measured. Two measurements were performed for each concentration to obtain an average response current. The enhancement of the current mediated by GABAA receptors was calculated by the following equation: Enhancement (%)=100*(Test Compound−Control)/Control
The Control group is the peak current amplitude induced by muscimol, and the Test Compound group is the peak current amplitude co-induced by the test compounds and muscimol. The enhancement (%) was calculated for each concentration, and EC50 was calculated by normalization.

[4] = Pharmacokinetic experiment on rats; type: in vivo, SD rats; conditions: male, Sprague-Dawley, rat, plasma; Intravenous Injection into Rats (1 mg/kg)
Protocol: 3 male SD rats, each weighing 180 to 240 g, were fasted overnight with water access. A 1 mL/kg solution of the compound was formulated with 10% DMA, 20% solutol HS-15 (30%, w/v) and 70% physiological saline. Blood was sampled before administration and 2 min, 4 min, 8 min, 12 min, 15 min, 30 min, 1 h, 1.5 h and 2 h after administration. Blood samples were centrifuged at 5500 rpm for 10 min, and plasma was collected and stored at −40° C. 10 μl rat plasma from each time point was added to a 200 μl acetonitrile solution containing an internal standard and mixed, followed by 1-min vortexing and 18-min centrifugation at 3700 rpm. Then 70 μl supernatant was mixed with 70 μl water, and 10 μl of the mixture was analyzed by LC-MS/MS. Major pharmacokinetic parameters were subjected to a non-compartment analysis with the software WinNonlin 6.3.

[5] = system: Beagle dogs; experiment: Haemodynamic effects in Beagle dogs; type: in vivo; conditions: for Dose required to produce the same anesthetic effect: Beagle dogs, intravenous emulsion for injection
Protocol: Data of various indicators such as electrocardiogram, blood pressure and body temperature of the animals were continuously collected from about 3.5 hours before administration until 6 hours after administration.

[6] = Pharmacokinetic analysis with prodrugs in rats; type: in vivo, SD rats; conditions: male, Sprague-Dawley, rat, plasma, iv, 10 mg/kg
Protocol: 3 male SD rats, each weighing 180 to 240 g, were fasted overnight with water access. After a single intravenous administration of a prodrug at 10 mg/kg to rats, the plasma concentrations of the prodrug and the active form were each measured by LC-MS/MS, and the pharmacokinetic parameters were analyzed.

[7] = system: ICR mice; experiment: Righting reflex experiment on mice with prodrugs; type: in vivo
Protocol: After adapting to the laboratory environment, the SPF-grade ICR mice were fasted for 12 hours.

[8] = injection; cited from earlier work
[9] = system: SD rats; experiment: Efficacy experiment on rats with prodrugs; type: in vivo
Protocol: (§6) This experiment selected SD rats, each weighing 180 to 200 g. The rats were randomized, with 10 animals per group, half male and half female. […] The time of administration, time of loss of the righting reflex, time of recovery of the righting reflex, and time of walking were recorded. Adverse effects shown by the rats after administration were also recorded.
(§7) Time of loss of the righting reflex: the righting reflex is lost; a rat made lying on its back can maintain the lying for a period of 60 s;
(§8) Time of recovery of the righting reflex: the righting reflex ability is restored; a rat made lying on its back rights in less than 2 s;
(§9) Time of walking: spontaneous forwarding moving occurs, and muscle tension of the limbs recovers.
(§10) Using GraphPad Prism 5, ED50 and LD50 values were calculated from a non-linear fitting of number of anesthetic or dead animals resulting from various doses.

[10] = Efficacy experiment on rats with prodrugs; type: in vivo; conditions: both sexes, Sprague-Dawley, rat, in vivo, intravenous, SD rats
Protocol: as §6, §7, §8, §9, §10

[11] = mice, intravenous injection, prodrugs

For `CC(C)c1cccc([C@H](C)C2CC2)c1O` [Compound 16, 2-[(1R)-1-cyclopropylethyl]-6-isopropyl-phenol], which ED50 [1] is on record?
The ED50 was 1.5 mg/kg.

And the Anesthesia induction time [1]?
Its Anesthesia induction time is <15.0 s.

What about the Anesthesia maintenance time [1] of the same compound?
Its Anesthesia maintenance time is 631.9 s.

And the HD7 [1]?
The HD7 was 3.5 mg/kg.

What about the SI ([1]; safety index, LD5/ED95, mice) of the same compound?
Its SI is 4.1.

And the TI [1]?
The TI was 6.7.

What about the MTD ([2]; intravenous) of the same compound?
Its MTD is 6 mg/kg.

What about the LD50 ([2]; iv) of the same compound?
The LD50 was 9.9 mg/kg.

What about the “Activity compared with propofol” value ([3]; patch clamp) of the same compound?
The value was “lower ED50”.

And the “Effect on the ion channels of GABAA receptors” value ([3]; patch clamp)?
Its value is “activating effect”.

What about the EC50 [3] of the same compound?
The EC50 was 1.1 µM.

What about the AUC(0-t) [4] of the same compound?
The AUC(0-t) was 168 ng·h/mL.

What about the clearance [4] of the same compound?
The clearance was 105 mL/min/kg.

And the half-life [4]?
Its half-life is 30 min.

And the “Dose required to produce the same anesthetic effect” value [5]?
The value was 2 mg/kg.

What about the “Effect on the heart rate and blood pressure” value ([5]; conscious Beagle dogs, Compound 16 2 mg/kg vs propofol 10 mg/kg) of the same compound?
Its value is “smaller than that of propofol”.

What does the source list for `CC(C)c1cccc(C(C)C)c1O` [Propofol, reference compound]?
AUC(0-t) [6]: 81.9 ng·h/mL; clearance [6]: 204 mL/min/kg; half-life [6]: 42 min; ED50 ([7]; Mus musculus, mice, intravenous injection, prodrugs formulated with physiological saline, read-out: ED50): 11.7 mg/kg; Anesthesia induction time [7, 11]: <15.0 s; Anesthesia maintenance time [7, 11]: 652.5 s; MTD ([7]; mice, prodrugs): 20.0 mg/kg; TI ([7]; therapeutic index, LD50/ED50, mice, prodrugs): 2.7; ED50 [1]: 11.7 mg/kg; Anesthesia induction time [1]: <15.0 s; Anesthesia maintenance time [1]: 652.5 s; HD7 [1]: 14.0 mg/kg; TI [1]: 2.7; Effect on the ion channels of GABAA receptors ([3]; patch clamp): activating effect; EC50 [3]: 5.3 µM; AUC(0-t) [4]: 81.9 ng·h/mL; clearance [4]: 204 mL/min/kg; half-life [4]: 42 min; Patients on injections feeling certain pain or discomfort [8]: approximately 70%; Dose required to produce the same anesthetic effect [5]: 10 mg/kg; ED50 ([9]; Rattus norvegicus, SD rats, tail vein, non-linear fitting): 5.7 mg/kg; Anesthesia induction time ([9]; SD rats, tail vein): 0.0 s; Anesthesia maintenance time ([9]; SD rats, tail vein): 652.0 s; TI ([9]; therapeutic index, LD50/ED50, rats): 3.4; MTD [10]: 12.5 mg/kg; LD50 ([10]; tail vein, non-linear fitting): 19.1 mg/kg

— patent US9517988B2 (Sichuan Haisco Pharmaceutical Co., Ltd., priority 2013, dated 2016)
